Experimental data taken from patent publication US11261186B2, “Biaryl derivative as GPR120 agonist” (LG CHEM, LTD., priority 2014, dated 2022).

Biological target: T1, hGPR120 (Homo sapiens, UniProt Q5NUL3)
T1 construct: expressed in transfected cells; host or cells: CHO-K1
T1 sequence (Q5NUL3 1-361): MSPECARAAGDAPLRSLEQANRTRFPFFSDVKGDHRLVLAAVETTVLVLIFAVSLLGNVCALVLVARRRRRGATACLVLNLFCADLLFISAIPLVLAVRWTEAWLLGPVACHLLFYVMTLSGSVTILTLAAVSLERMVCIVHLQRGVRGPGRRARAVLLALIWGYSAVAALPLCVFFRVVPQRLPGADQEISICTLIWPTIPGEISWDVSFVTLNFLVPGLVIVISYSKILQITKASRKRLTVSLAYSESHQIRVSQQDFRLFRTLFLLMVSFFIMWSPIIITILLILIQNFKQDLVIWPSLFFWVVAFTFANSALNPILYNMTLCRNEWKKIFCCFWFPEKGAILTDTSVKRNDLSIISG
Assay: Measurement of Activity of GPR120 Agonist (Cell-Based Assay), Calcium 5 dye fluorescence
Conditions: CHO-K1 cells expressing Ga16 and hGPR120
Method in brief: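 Gα16/hGPR120 CHO-K1; 18 h plating, 37 °C, 5% CO2; Calcium 5 dye load 1 h; agonist serial dilution, 0.5% DMSO final; fluor Ex485/Em525; response as % of 1% DMSO vehicle.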

SMILES | EC50
O=C(O)CCCCc1ccc(-c2cccnc2SC2CCC2)cc1F [Example 249, 5-[4-(2-cyclobutylsulfanyl-pyridin-3-yl)-2-fluoro-phenyl]-pentanoic acid] | < 200 nM
O=C(O)CCC1CCc2cc(-c3cccc(OC4CCC4)n3)ccc2O1 (stereo not shown) [Example 444, 3-[6-[6-(cyclobutoxy)-2-pyridyl]chroman-2-yl]propanoic acid] | < 200 nM
O=C(O)CCCSc1c(F)cc(-c2cccc3c2OC2(CCCC2)C3)cc1F [Example 262, 4-(2,6-difluoro-4-spiro[3H-benzofuran-2,1′-cyclopentan]-7-yl-phenylsulfanyl)-butyric acid] | < 200 nM
Cc1nsc(OC2CCC2)c1-c1cc(F)c(N2CCC(CC(=O)O)C2)c(F)c1 (stereo not shown) [Example 591, {1-[4-(5-cyclobutoxy-3-methyl-isothiazol-4-yl)-2,6-difluoro-phenyl]-pyrrolidin-3-yl}-acetic acid] | < 200 nM
Oc1cc(CSc2c(F)cc(-c3cccnc3OC3CCCC3)cc2F)on1 [Example 83, 5-[[4-[2-(cyclopentoxy)-3-pyridyl]-2,6-difluoro-phenyl]sulfanylmethyl]isoxazol-3-ol] | < 200 nM
O=C(O)C1CC1COc1c(F)cc(-c2cccc(OC3CCC3)n2)cc1F (stereo not shown) [Example 544, 2-[4-(6-cyclobutoxy-pyridin-2-yl)-2,6-difluoro-phenoxymethyl]-cyclopropanecarboxylic acid] | < 200 nM
CN(CCCC(=O)O)c1c(F)cc(-c2cccc(OCC3CCC3)c2)cc1F [Example 520, 4-[(3′-cyclobutylmethoxy-3,5-difluoro-biphenyl-4-yl)-methyl-amino]-butyric acid] | 200 to 2000 nM
O=C(O)CCC1CCc2cc(-c3cccc(OC4CCC4)c3)ccc2O1 (stereo not shown) [Example 555, 3-[6-(3-cyclobutoxy-phenyl)-chroman-2-yl]-propionic acid] | < 200 nM
COc1cncc(-c2cc(F)c(N3CCC(CC(=O)O)C3)c(F)c2)n1 (stereo not shown) [Example 584, {1-[2,6-difluoro-4-(6-methoxy-pyrazin-2-yl)-phenyl]-pyrrolidin-3-yl}-acetic acid] | 200 to 2000 nM
O=C(O)CCCOc1c(F)cc(-c2cccc(OC3CCCC3)n2)cc1Cl [Example 400, 4-[2-chloro-4-(6-cyclopentyloxy-pyridin-2-yl)-6-fluoro-phenoxy]-butyric acid] | < 200 nM
Cc1cc(OC(C)C)nc(-c2cc(F)c(N3CCC(CC(=O)O)CC3)c(F)c2)n1 [Example 350, 2-[1-[2,6-difluoro-4-(4-isopropoxy-6-methyl-pyrimidin-2-yl)phenyl]-4-piperidyl]acetic acid] | 200 to 2000 nM
CC1(C)Cc2c(cccc2-c2cc(F)c(OCCCC(=O)O)c(F)c2)O1 [Example 291, 4-[4-(2,2-dimethyl-2,3-dihydro-benzofuran-4-yl)-2,6-difluoro-phenoxy]-butyric acid] | < 200 nM
CC(C)Sc1ncccc1-c1cc(F)c(N2CC(CC(=O)O)C2)c(F)c1 [Example 109, 2-[1-[2,6-difluoro-4-(2-isopropylsulfanyl-3-pyridyl)phenyl]azetidin-3-yl]acetic acid] | < 200 nM
CCCOc1ncccc1-c1cc(F)c(OCc2cc(O)no2)c(F)c1 [Example 74, 5-[[2,6-difluoro-4-(2-propoxy-3-pyridyl)phenoxy]methyl]isoxazol-3-ol] | < 200 nM
COc1ccc(-c2cc(F)c(N3CCC(CC(=O)O)CC3)c(F)c2)cc1OC1CCC1 [Example 305, 2-[1-[4-[3-(cyclobutoxy)-4-methoxy-phenyl]-2,6-difluoro-phenyl]-4-piperidyl]acetic acid] | 200 to 2000 nM
O=C(O)CCCOc1c(F)cc(-c2cccc(OC3CCC3)n2)cc1Cl [Example 385, 4-[2-chloro-4-[6-(cyclobutoxy)-2-pyridyl]-6-fluoro-phenoxy]butanoic acid] | < 200 nM

Next, values leading:

EC50 | SMILES
200 to 2000 nM | CC(C)Oc1ncccc1-c1cc(F)c(N2CCC(CC(=O)O)CC2)c(F)c1 [Example 119, 2-[1-[2,6-difluoro-4-(2-isopropoxy-3-pyridyl)phenyl]-4-piperidyl]acetic acid]
2000 to 20000 nM | CC(C)Sc1cccc(-c2cc(F)c(N3CCC4(CC3)CC4C(=O)O)c(F)c2)n1 (stereo not shown) [Example 111, 6-[2,6-difluoro-4-(6-isopropylsulfanyl-2-pyridyl)phenyl]-6-azaspiro[2.5]octan-2-carboxylic acid]
< 200 nM | O=C(O)CCCSc1ccc(-c2cccc3c2OC(F)(F)O3)cc1F [Example 154, 4-[4-(2,2-difluoro-benzo[1,3]dioxol-4-yl)-2-fluoro-phenylsulfanyl]-butyric acid]
< 200 nM | O=C(O)CC1CCN(c2c(F)cc(-c3nccc(Oc4ccc(F)cc4)n3)cc2F)CC1 [Example 511, 2-[1-[4-[4-(4-fluorophenoxy)pyrimidin-2-yl]-2,6-difluoro-phenyl]-4-piperidyl]acetic acid]
< 200 nM | O=C(O)CCCOc1ccc(-c2cccnc2SC2CCC2)cc1F [Example 235, 4-[4-(2-cyclobutylsulfanyl-pyridin-3-yl)-2-fluoro-phenoxy]-butyric acid]
< 200 nM | CCOc1cncc(-c2cc(F)c(OCCCC(=O)O)c(Cl)c2)n1 [Example 437, 4-[2-chloro-4-(6-ethoxy-pyrazin-2-yl)-6-fluoro-phenoxy]-butyric acid]
< 200 nM | O=C(O)CCC1CCc2cc(-c3cccnc3SC3CCCC3)ccc2S1 (stereo not shown) [Example 281, 3-[6-(2-cyclopentylsulfanyl-pyridin-3-yl)-thiochroman-2-yl]-propionic acid]
< 200 nM | CN(CCCC(=O)O)c1c(F)cc(-c2cccc(OCC3CC3)c2)cc1F [Example 524, 4-[(3′-cyclopropylmethoxy-3,5-difluoro-biphenyl-4-yl)-methyl-amino]-butyric acid]
< 200 nM | CCOc1cncc(-c2cc(F)c(N3CCC(CC(=O)O)CC3)c(F)c2)n1 [Example 338, 2-[1-[4-(6-ethoxypyrazin-2-yl)-2,6-difluoro-phenyl]-4-piperidyl]acetic acid]
< 200 nM | O=C(O)C1CC1CNc1c(F)cc(-c2cccnc2SC2CCCC2)cc1F (stereo not shown) [Example 210, 2-{[4-(2-cyclopentylsulfanyl-pyridin-3-yl)-2,6-difluoro-phenylamino]-methyl}-cyclopropanecarboxylic acid]
< 200 nM | CCCSc1ncccc1-c1cc(F)c(N(C)CCCC(=O)O)c(F)c1 [Example 207, 4-{[2,6-difluoro-4-(2-propylsulfanyl-pyridin-3-yl)-phenyl]-methyl-amino}-butyric acid]
< 200 nM | CCCSc1ncccc1-c1cc(F)c(C2CC2CCC(=O)O)c(F)c1 (stereo not shown) [Example 179, 3-{2-[2,6-difluoro-4-(2-propylsulfanyl-pyridin-3-yl)-phenyl]-cyclopropyl}-propanoic acid]
< 200 nM | O=C(O)CC1CCN(c2c(F)cc(-c3cncc(OCC4CC4)n3)cc2F)CC1 [Example 333, 2-[1-[4-[6-(cyclopropylmethoxy)pyrazin-2-yl]-2,6-difluoro-phenyl]-4-piperidyl]acetic acid]
200 to 2000 nM | CC(C)Sc1ncccc1-c1cc(F)c(N2CC(CCC(=O)O)C2)c(F)c1 [Example 133, 3-[1-[2,6-difluoro-4-(2-isopropylsulfanyl-3-pyridyl)phenyl]azetidin-3-yl]propanoic acid]
< 200 nM | O=C(O)CCCCc1ccc(-c2cccnc2OCC2CCC2)cc1F [Example 246, 5-[4-(2-cyclobutylmethoxy-pyridin-3-yl)-2-fluoro-phenyl]-pentanoic acid]
200 to 2000 nM | CC(CCCC(=O)O)c1c(F)cc(-c2cccc3c2OC2(CCCC2)C3)cc1F (stereo not shown) [Example 264, 5-(2,6-difluoro-4-spiro[3H-benzofuran-2,1′-cyclopentan]-7-yl-phenyl)-hexanoic acid]
< 200 nM | O=C(O)CCCOc1c(F)cc(-c2cccc3c2OC(F)(F)O3)cc1F [Example 290, 4-[4-(2,2-difluoro-benzo[1,3]dioxol-4-yl)-2,6-difluoro-phenoxy]-butyric acid]
< 200 nM | CCCSc1ncccc1-c1cc(F)c(CCCCC(=O)O)c(F)c1 [Example 31, 5-[2,6-difluoro-4-(2-propylsulfanyl-3-pyridyl)phenyl]pentanoic acid]
200 to 2000 nM | CC1(C)Cc2c(ccc(F)c2-c2cc(F)c(OCCCC(=O)O)c(F)c2)N1 [Example 268, 4-[2,6-difluoro-4-(5-fluoro-2,2-dimethyl-2,3-dihydro-1H-indol-4-yl)-phenoxy]-butyric acid]
< 200 nM | O=C(O)CCC1CC1c1c(F)cc(-c2cccc(OCC3CC3)n2)cc1F (stereo not shown) [Example 191, 3-{2-[4-(6-cyclopropylmethoxy-pyridin-2-yl)-2,6-difluoro-phenyl]-cyclopropyl}-propanoic acid]
< 200 nM | C[C@@H](CCCC(=O)O)c1c(F)cc(-c2cccnc2SC2CCC2)cc1F [Example 229, (S)-5-[4-(2-cyclobutylsulfanyl-pyridin-3-yl)-2,6-difluoro-phenyl]-hexanoic acid]
< 200 nM | O=C(O)CC1CCN(c2c(F)cc(-c3ncc(F)c(OCC4CC4)n3)cc2F)CC1 [Example 372, 2-[1-[4-[4-(cyclopropylmethoxy)-5-fluoro-pyrimidin-2-yl]-2,6-difluoro-phenyl]-4-piperidyl]acetic acid]
< 200 nM | O=C(O)CCCOc1ccc(-c2cccnc2SC2CCCC2)cc1F [Example 236, 4-[4-(2-cyclopentylsulfanyl-pyridin-3-yl)-2-fluoro-phenoxy]-butyric acid]
< 200 nM | CCSc1ncccc1-c1cc(F)c(C(C)CCCC(=O)O)c(F)c1 (stereo not shown) [Example 42, 5-[4-(2-ethylsulfanyl-3-pyridyl)-2,6-difluoro-phenyl]hexanoic acid]
